This note sets out measurements from patent US11623924B2, “Modulators of alpha-1 antitrypsin” (Vertex Pharmaceuticals Incorporated, priority 2018, dated 2023).

By EC50 is commonly meant the midpoint of the concentration-response curve.

In the first experiment the target is T1, NL20 human bronchial epithelial cells expressing human Z-AAT (Homo sapiens, UniProt P01009, E366K).
T1 construct: expressed in transfected cells; host or cells: NL20 human bronchial epithelial cells (NL20-SI line, doxycycline added)
T1 sequence (P01009 25-418 E366K): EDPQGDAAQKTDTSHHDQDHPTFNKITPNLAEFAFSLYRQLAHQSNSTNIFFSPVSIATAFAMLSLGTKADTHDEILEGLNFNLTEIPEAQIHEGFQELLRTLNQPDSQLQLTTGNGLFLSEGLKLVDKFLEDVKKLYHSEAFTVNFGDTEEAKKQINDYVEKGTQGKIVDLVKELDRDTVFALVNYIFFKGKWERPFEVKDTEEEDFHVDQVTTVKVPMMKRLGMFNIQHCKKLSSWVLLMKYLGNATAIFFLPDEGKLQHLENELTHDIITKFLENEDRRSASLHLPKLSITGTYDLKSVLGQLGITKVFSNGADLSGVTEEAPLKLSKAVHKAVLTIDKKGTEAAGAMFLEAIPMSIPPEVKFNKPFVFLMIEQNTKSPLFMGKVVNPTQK
The experiment can be described thus: AAT Function Assay (MSD Assay NL20-SI Cell Line). It counts as cell-based. The following applies: NL20 Func. (EC50), functionally active AAT (AAT-hNE complex) in supernatant of NL20 cells expressing human Z-AAT. Put shortly:
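NL20 cells expressing Z-AAT, seeded 16,000 cells/well, received compound with doxycycline (0.1 μM final) and were incubated overnight at 37° C. Supernatants, diluted 45-fold in total, reacted with excess human neutrophil elastase; AAT-elastase complex captured on anti-AAT plates, detected with Sulfo-tagged anti-elastase by MSD electrochemiluminescence, and quantified against M-AAT standards (0.156-320 ng/mL).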
Take `CC(C)c1c(C#N)c2cc3[nH]ncc3cc2n1-c1ccccc1` [Compound 42, 6-isopropyl-5-phenyl-1H-pyrrolo[2,3-f]indazole-7-carbonitrile]: the EC50 lay in the range of 1.16 to 3 µM.
The same measure, in the same setting: the value for `Cc1cccc(-n2c(C(C)C)c(C#N)c3cc4[nH]ncc4cc32)c1` [Compound 44, 6-isopropyl-5-(m-tolyl)-1H-pyrrolo[2,3-f]indazole-7-carbonitrile] was greater than 3 µM.

Staying with this experiment, now noted: functionally active AAT (AAT-hNE complex) in supernatant of NL20 cells expressing human Z-AAT; read-out: NL20 Func. (EC50).
As to `CC(=O)N1CCC(Cc2c(C3CCOCC3)n(-c3ccc(F)cc3)c3cc4cn[nH]c4cc23)C1` (stereo in doubt) [Compound 213, 1-[(3S)-3-[[5-(4-fluorophenyl)-6-tetrahydropyran-4-yl-1H-pyrrolo[2,3-f]indazol-7-yl]methyl]pyrrolidin-1-yl]ethanone], the EC50 was greater than 3 µM.
For the compound `Cc1cc(-n2c(C(C)C)c(I)c3cc4[nH]ncc4cc32)ccc1F` [Compound 1, 5-(4-fluoro-3-methyl-phenyl)-7-iodo-6-isopropyl-1H-pyrrolo[2,3-f]indazole], the EC50 lay within 1.16 to 3 µM.
On the same count and under the same terms, the value for `CCOC(=O)c1c(C(C)C)n(-c2ccc(F)c(C)c2)c2cc3cn[nH]c3cc12` [Compound 2, ethyl 5-(4-fluoro-3-methyl-phenyl)-6-isopropyl-1H-pyrrolo[2,3-f]indazole-7-carboxylate] was greater than 3 µM.
As for `Cc1cc(-n2c(C(C)C)c(C(=O)O)c3cc4[nH]ncc4cc32)ccc1F` [Compound 3, 5-(4-fluoro-3-methyl-phenyl)-6-isopropyl-1H-pyrrolo[2,3-f]indazole-7-carboxylic Acid], the EC50 was 1.16 to 3 µM.
Still for that read-out and setting: the value for `Cc1cc(-n2c(C(C)C)c(C(=O)N3CCOCC3)c3cc4[nH]ncc4cc32)ccc1F` [Compound 4, [5-(4-fluoro-3-methyl-phenyl)-6-isopropyl-1H-pyrrolo[2,3-f]indazol-7-yl]-morpholino-methanone] was greater than 3 µM.
Still for that read-out and setting: then `Cc1cc(-n2c(C(C)C)c(C(=O)N3CCN(C)CC3)c3cc4[nH]ncc4cc32)ccc1F` [Compound 5, [5-(4-fluoro-3-methyl-phenyl)-6-isopropyl-1H-pyrrolo[2,3-f]indazol-7-yl]-(4-methylpiperazin-1-yl)methanone], with greater than 3 µM; and `CCNC(=O)c1c(C(C)C)n(-c2ccc(F)c(C)c2)c2cc3cn[nH]c3cc12` [Compound 6, N-ethyl-5-(4-fluoro-3-methyl-phenyl)-6-isopropyl-1H-pyrrolo[2,3-f]indazole-7-carboxamide], with greater than 3 µM.
On the same count and under the same terms, the value for `Cc1cc(-n2c(C(C)C)c(C(=O)NC3COC3)c3cc4[nH]ncc4cc32)ccc1F` [Compound 7, 5-(4-fluoro-3-methyl-phenyl)-6-isopropyl-N-(oxetan-3-yl)-1H-pyrrolo[2,3-f]indazole-7-carboxamide] was greater than 3 µM.
In the case of `Cc1cc(-n2c(C(C)C)c(N3CCCC3=O)c3cc4[nH]ncc4cc32)ccc1F` [Compound 8, 1-[5-(4-fluoro-3-methyl-phenyl)-6-isopropyl-1H-pyrrolo[2,3-f]indazol-7-yl]pyrrolidin-2-one], the EC50 was greater than 3 µM.
The same measure, in the same setting: the value for `Cc1cc(-n2c(C(C)C)c(N3CCOCC3=O)c3cc4[nH]ncc4cc32)ccc1F` [Compound 9, 4-[5-(4-fluoro-3-methyl-phenyl)-6-isopropyl-1H-pyrrolo[2,3-f]indazol-7-yl]morpholin-3-one] was greater than 3 µM; that for `Cc1cc(-n2c(C(C)C)c(C#N)c3cc4[nH]ncc4cc32)ccc1F` [Compound 10, 5-(4-fluoro-3-methyl-phenyl)-6-isopropyl-1H-pyrrolo[2,3-f]indazole-7-carbonitrile] was greater than 3 µM; that for `Cc1cc(-n2c(C(C)C)c(S(C)(=O)=O)c3cc4[nH]ncc4cc32)ccc1F` [Compound 11, 5-(4-fluoro-3-methyl-phenyl)-6-isopropyl-7-methylsulfonyl-1H-pyrrolo[2,3-f]indazole] was 1.16 to 3 µM.
Regarding `C=Cc1c(C(C)C)n(-c2ccc(F)c(C)c2)c2cc3cn[nH]c3cc12` [Compound 12, 5-(4-fluoro-3-methyl-phenyl)-6-isopropyl-7-vinyl-1H-pyrrolo[2,3-f]indazole], the EC50 is greater than 3 µM.
Take `Cc1cc(-n2c(C(C)C)c(CCC(=O)O)c3cc4[nH]ncc4cc32)ccc1F` [Compound 16, 3-[5-(4-fluoro-3-methyl-phenyl)-6-isopropyl-1H-pyrrolo[2,3-f]indazol-7-yl]propanoic acid]: the EC50 fell in the range of 1.16 to 3 µM.
For `Cc1cc(-n2c(C(C)C)c(CC3(C(=O)O)CC3)c3cc4[nH]ncc4cc32)ccc1F` [Compound 17, 1-[[5-(4-fluoro-3-methyl-phenyl)-6-isopropyl-1H-pyrrolo[2,3-f]indazol-7-yl]methyl]cyclopropanecarboxylic Acid], the EC50 was less than 1.16 µM.
On the same count and under the same terms, the value for `Cc1cc(-n2c(C(C)C)c([C@H]3C[C@@H](CC(=O)O)C3)c3cc4[nH]ncc4cc32)ccc1F` [Compound 23] was less than 1.16 µM; that for `CC(C)c1c(C#N)c2cc3[nH]ncc3cc2n1-c1ccc(F)cc1` [Compound 29, 5-(4-fluorophenyl)-6-isopropyl-1H-pyrrolo[2,3-f]indazole-7-carbonitrile] was less than 1.16 µM; that for `CC(C)c1c(S(C)(=O)=O)c2cc3[nH]ncc3cc2n1-c1ccc(F)cc1` [Compound 30, 5-(4-fluorophenyl)-6-isopropyl-7-methylsulfonyl-1H-pyrrolo[2,3-f]indazole] was greater than 3 µM.
The same measure, in the same setting: the value for `CC(C)c1c(/C=C/C(=O)O)c2cc3[nH]ncc3cc2n1-c1ccc(F)cc1` [Compound 31, (E)-3-[5-(4-fluorophenyl)-6-isopropyl-1H-pyrrolo[2,3-f]indazol-7-yl]prop-2-enoic Acid] was 1.16 to 3 µM.
Still for that read-out and setting: then `CC(C)c1c(CCC(=O)O)c2cc3[nH]ncc3cc2n1-c1ccc(F)cc1` [Compound 32, 3-[5-(4-fluorophenyl)-6-isopropyl-1H-pyrrolo[2,3-f]indazol-7-yl]propanoic Acid], with 1.16 to 3 µM.
Take `CC(C)c1c(CC2(C(=O)O)CC2)c2cc3[nH]ncc3cc2n1-c1ccc(F)cc1` [Compound 33, 1-[[5-(4-fluorophenyl)-6-isopropyl-1H-pyrrolo[2,3-f]indazol-7-yl]methyl]cyclopropanecarboxylic Acid]: the EC50 is less than 1.16 µM.
Same read-out and setting: the value for `CC(C)c1c(CCC(=O)O)c2cc3[nH]ncc3cc2n1-c1cccc(C(F)F)c1` [Compound 37, 3-[5-[3-(difluoromethyl)phenyl]-6-isopropyl-1H-pyrrolo[2,3-f]indazol-7-yl]propanoic Acid] was greater than 3 µM; that for `CC(C)c1c(CCC(=O)O)c2cc3[nH]ncc3cc2n1-c1ccc(F)c(F)c1` [Compound 38, 3-[5-(3,4-difluorophenyl)-6-isopropyl-1H-pyrrolo[2,3-f]indazol-7-yl]propanoic Acid] was 1.16 to 3 µM.
As to `CC(C)c1c(CC2(C(=O)O)CC2)c2cc3[nH]ncc3cc2n1-c1cccc(C(F)(F)F)c1` [Compound 39, 1-[[6-isopropyl-5-[3-(trifluoromethyl)phenyl]-1H-pyrrolo[2,3-f]indazol-7-yl]methyl]cyclopropanecarboxylic Acid], the EC50 is 1.16 to 3 µM.
For the compound `CC(C)c1c(CCC(=O)O)c2cc3[nH]ncc3cc2n1-c1cccc(C(F)(F)F)c1` [Compound 40, 3-[6-isopropyl-5-[3-(trifluoromethyl)phenyl]-1H-pyrrolo[2,3-f]indazol-7-yl]propanoic Acid], the EC50 is greater than 3 µM.
Still for that read-out and setting: the value for `CC(C)c1c(CCC(=O)O)c2cc3[nH]ncc3cc2n1-c1ccccc1` [Compound 41, 3-(6-isopropyl-5-phenyl-1H-pyrrolo[2,3-f]indazol-7-yl)propanoic Acid] was 1.16 to 3 µM; that for `Cc1cc(-n2c(C(C)C)cc3cc4[nH]ncc4cc32)ccn1` [Compound 43, 6-isopropyl-5-(2-methyl-4-pyridyl)-1H-pyrrolo[2,3-f]indazole] was greater than 3 µM; that for `CC(C)c1c(C#N)c2cc3[nH]ncc3cc2n1-c1cccc(Cl)c1` [Compound 45, 5-(3-chlorophenyl)-6-isopropyl-1H-pyrrolo[2,3-f]indazole-7-carbonitrile] was greater than 3 µM.
Still for that read-out and setting: then `Cc1cc(-n2c(C(C)C)c(I)c3cc4[nH]nc(F)c4cc32)ccc1F` [Compound 46, 3-fluoro-5-(4-fluoro-3-methyl-phenyl)-7-iodo-6-isopropyl-1H-pyrrolo[2,3-f]indazole], with greater than 3 µM; and `Cc1cc(-n2c(C(C)C)c(S(C)(=O)=O)c3cc4[nH]nc(F)c4cc32)ccc1F` [Compound 47, 3-fluoro-5-(4-fluoro-3-methyl-phenyl)-6-isopropyl-7-methylsulfonyl-1H-pyrrolo[2,3-f]indazole], with greater than 3 µM; and `Cc1cc(-n2c(C(C)C)cc3c(I)c4[nH]ncc4cc32)ccc1F` [Compound 48, 5-(4-fluoro-3-methyl-phenyl)-8-iodo-6-isopropyl-1H-pyrrolo[2,3-f]indazole], with greater than 3 µM.
For the compound `Cc1cc(-n2c(C(C)C)cc3c(C)c4[nH]ncc4cc32)ccc1F` [Compound 49, 5-(4-fluoro-3-methyl-phenyl)-6-isopropyl-8-methyl-1H-pyrrolo[2,3-f]indazole], the EC50 was greater than 3 µM.
Still for that read-out and setting: the value for `Cc1cc(-n2c(C(C)C)cc3c(F)c4[nH]ncc4cc32)ccc1F` [Compound 50, 8-fluoro-5-(4-fluoro-3-methyl-phenyl)-6-isopropyl-1H-pyrrolo[2,3-f]indazole] was greater than 3 µM; that for `Cc1cc(-n2c(C(C)C)c(CCC(=O)O)c3c(C)c4[nH]ncc4cc32)ccc1F` [Compound 51, 3-[5-(4-fluoro-3-methyl-phenyl)-6-isopropyl-8-methyl-1H-pyrrolo[2,3-f]indazol-7-yl]propanoic acid] was 1.16 to 3 µM.
Still for that read-out and setting: then `Cc1cc(-n2c(C(C)C)c(CCC(=O)O)c3c(F)c4[nH]ncc4cc32)ccc1F` [Compound 52, 3-[8-fluoro-5-(4-fluoro-3-methyl-phenyl)-6-isopropyl-1H-pyrrolo[2,3-f]indazol-7-yl]propanoic Acid], with less than 1.16 µM.
